Values of other authors in patent US7700588B2, “Pharmaceutical compositions comprising midazolam in a high concentration” (priority 2004, dated 2010).
Where two headings read alike, the source gives them in different places.

Columns and labels:
[1] = not given; remark: listed apart in the source
[2] = for mean absolute bioavailability: injection solutions
[3] = free base, pH 7.5
[4] = nasal 0.2 mg/kg
[5] = tested on: intestinal drug efflux transporter; conditions: orally delivered
[6] = commercial intravenous solutions 5 mg/ml, pH 3.3 to 3.5
[7] = after nasal administration, 0.2 to 0.25 mg/kg

**Q.** Which results are given for `Cc1ncc2n1-c1ccc(Cl)cc1C(c1ccccc1F)=NC2` [midazolam]?
**A.** onset of action (intranasal, children and adults): about 10 minutes; clinical effect in children undergoing diagnostic and minor surgical procedures (nasal 0.2 mg/kg): sedative and anxiolytic effects; effect on seizures and EEG in epileptic children (nasal 0.2 mg/kg): suppresses acute seizures and improves the EEG background; share in the ring-closed form [1, 6]: 80-85%; share in the ring-open form [1, 6]: 15-20%; state of the ring when pH is increased ([1]; pH increased to 7.4): completely closed; time for which therapeutically effective plasma concentrations are maintained [2, 7]: about 1 hour; time until therapeutically effective plasma concentrations are manifest [2, 7]: 3 min; time to maximum plasma concentrations ([2]; intranasal): 5 to 15 min; mean absolute bioavailability ([2]; intranasal, adult surgical patients): 83%; mean absolute bioavailability ([2]; intranasal, children): 50%; mean absolute bioavailability ([2]; intranasal, healthy volunteers): 55%; partition coefficient between octanol and phosphate buffer [3]: about 475; side effects in children [4]: none of the children had clinical signs of respiratory depression, bradycardia or other side effects; transporter substrate [5]: substrate for the intestinal drug efflux transporter
